EP2505659A1, “Methods for the identification of dioxygenase interacting molecules and for the purification of dioxygenase proteins” (CELLZOME AG, priority 2011, dated 2012)
Counter-ions that a name gives are not always drawn. Like-named read-outs stand apart in the source and are kept apart here.

Assays:
Test in all cases: Bead competition binding assay, immobilized compound A, K-562, HL-60 and Jurkat nuclear lysates
Conditions in all cases: 100 µM free compound A, read-out: Fold change versus DMSO control
ALKBH3 = biological target: T1, ALKBH3 (Homo sapiens, UniProt Q96Q83)
T1 construct: capturing and identification of dioxygenases from nuclear protein extracts; endogenous in cells
T1 sequence (Q96Q83 1-286): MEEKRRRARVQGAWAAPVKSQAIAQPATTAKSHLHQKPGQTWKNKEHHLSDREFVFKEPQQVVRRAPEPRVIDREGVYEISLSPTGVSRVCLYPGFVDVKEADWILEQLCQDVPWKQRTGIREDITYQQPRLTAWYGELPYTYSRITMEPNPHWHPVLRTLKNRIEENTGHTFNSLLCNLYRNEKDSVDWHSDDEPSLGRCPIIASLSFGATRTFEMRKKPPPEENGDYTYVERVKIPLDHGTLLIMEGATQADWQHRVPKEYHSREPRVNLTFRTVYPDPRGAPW
From the text: (§1) K562 cells were also purchased from DSMZ (Braunschweig, Germany).
(§2) Table 5: Peptide elution off the LC system

EGLN1 = biological target: T2, EGLN1 (Homo sapiens, UniProt Q9GZT9)
T2 construct: endogenous in cells
T2 sequence (Q9GZT9 whole entry): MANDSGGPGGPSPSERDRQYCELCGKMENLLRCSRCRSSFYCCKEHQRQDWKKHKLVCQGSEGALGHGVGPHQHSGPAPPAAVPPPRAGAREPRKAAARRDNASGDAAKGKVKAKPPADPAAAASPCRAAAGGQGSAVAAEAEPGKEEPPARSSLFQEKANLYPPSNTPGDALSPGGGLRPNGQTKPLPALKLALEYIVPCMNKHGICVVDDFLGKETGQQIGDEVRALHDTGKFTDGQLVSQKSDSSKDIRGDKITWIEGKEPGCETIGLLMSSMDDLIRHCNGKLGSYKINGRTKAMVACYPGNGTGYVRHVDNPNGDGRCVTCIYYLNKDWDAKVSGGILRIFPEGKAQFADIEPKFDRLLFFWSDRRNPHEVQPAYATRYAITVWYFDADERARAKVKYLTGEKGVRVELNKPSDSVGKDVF
From the text: as §1, §2

FTO = biological target: T3, FTO (Homo sapiens, UniProt Q9C0B1)
T3 construct: endogenous in cells
T3 sequence (Q9C0B1 whole entry): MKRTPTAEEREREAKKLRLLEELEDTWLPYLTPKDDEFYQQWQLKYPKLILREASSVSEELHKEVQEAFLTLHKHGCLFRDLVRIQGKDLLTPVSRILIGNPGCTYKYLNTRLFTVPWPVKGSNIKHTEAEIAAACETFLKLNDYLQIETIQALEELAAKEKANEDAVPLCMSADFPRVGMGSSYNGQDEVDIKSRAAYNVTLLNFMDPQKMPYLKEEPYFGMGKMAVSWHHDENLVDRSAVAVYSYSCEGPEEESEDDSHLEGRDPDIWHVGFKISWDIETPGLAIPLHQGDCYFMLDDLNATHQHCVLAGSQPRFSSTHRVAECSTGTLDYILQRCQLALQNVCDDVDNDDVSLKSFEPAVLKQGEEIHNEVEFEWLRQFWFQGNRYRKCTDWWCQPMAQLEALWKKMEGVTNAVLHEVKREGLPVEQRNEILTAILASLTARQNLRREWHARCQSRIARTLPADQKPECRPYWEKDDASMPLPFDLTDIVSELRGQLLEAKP
From the text: as §1, §2

LEPREL2 = biological target: T4, LEPREL2 (Homo sapiens, UniProt Q8IVL6)
T4 construct: capturing and identification of dioxygenases from nuclear protein extracts; endogenous in cells
T4 sequence (Q8IVL6 21-736): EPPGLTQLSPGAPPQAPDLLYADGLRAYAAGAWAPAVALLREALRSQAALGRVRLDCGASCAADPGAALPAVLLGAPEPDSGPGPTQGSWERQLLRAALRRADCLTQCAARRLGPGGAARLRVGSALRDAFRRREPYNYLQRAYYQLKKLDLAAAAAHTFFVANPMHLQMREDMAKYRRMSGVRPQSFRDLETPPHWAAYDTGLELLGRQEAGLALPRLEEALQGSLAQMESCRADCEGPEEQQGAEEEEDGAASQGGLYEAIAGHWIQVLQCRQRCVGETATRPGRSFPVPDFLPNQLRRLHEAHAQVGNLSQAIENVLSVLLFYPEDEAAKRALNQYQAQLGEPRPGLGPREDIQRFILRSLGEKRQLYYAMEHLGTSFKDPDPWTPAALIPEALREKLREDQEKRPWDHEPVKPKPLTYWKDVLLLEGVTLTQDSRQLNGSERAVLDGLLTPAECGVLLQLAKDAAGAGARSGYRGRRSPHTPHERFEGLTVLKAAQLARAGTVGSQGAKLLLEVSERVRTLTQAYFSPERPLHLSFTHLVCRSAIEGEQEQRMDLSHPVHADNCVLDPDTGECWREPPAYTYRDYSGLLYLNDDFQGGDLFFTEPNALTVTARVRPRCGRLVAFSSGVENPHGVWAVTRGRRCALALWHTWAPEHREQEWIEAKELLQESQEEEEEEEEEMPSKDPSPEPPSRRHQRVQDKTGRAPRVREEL
From the text: as §1, §2

PLOD1 = biological target: T5, PLOD1 (Homo sapiens, UniProt Q02809)
T5 construct: capturing and identification of dioxygenases from nuclear protein extracts; endogenous in cells
T5 sequence (Q02809 19-727): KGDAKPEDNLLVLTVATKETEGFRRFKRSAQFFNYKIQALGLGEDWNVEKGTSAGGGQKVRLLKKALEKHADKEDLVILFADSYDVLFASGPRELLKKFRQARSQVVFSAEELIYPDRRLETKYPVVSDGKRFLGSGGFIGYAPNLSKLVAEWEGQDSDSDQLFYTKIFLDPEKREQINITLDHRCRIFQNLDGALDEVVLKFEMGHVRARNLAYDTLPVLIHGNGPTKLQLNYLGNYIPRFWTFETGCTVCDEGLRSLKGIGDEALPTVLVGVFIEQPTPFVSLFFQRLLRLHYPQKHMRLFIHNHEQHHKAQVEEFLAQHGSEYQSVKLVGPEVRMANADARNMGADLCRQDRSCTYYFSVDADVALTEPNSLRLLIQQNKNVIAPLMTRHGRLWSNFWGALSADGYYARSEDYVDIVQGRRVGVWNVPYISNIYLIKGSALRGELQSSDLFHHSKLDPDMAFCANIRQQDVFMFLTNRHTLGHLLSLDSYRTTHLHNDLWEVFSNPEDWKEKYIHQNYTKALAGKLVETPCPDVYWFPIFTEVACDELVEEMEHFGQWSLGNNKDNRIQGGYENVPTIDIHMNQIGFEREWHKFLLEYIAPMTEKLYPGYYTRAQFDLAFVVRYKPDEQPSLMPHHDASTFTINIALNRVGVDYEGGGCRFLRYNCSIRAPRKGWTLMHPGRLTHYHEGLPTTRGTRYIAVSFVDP
From the text: as §1, §2

PLOD3 = biological target: T6, PLOD3 (Homo sapiens, UniProt O60568)
T6 construct: capturing and identification of dioxygenases from nuclear protein extracts; endogenous in cells
T6 sequence (O60568 25-738): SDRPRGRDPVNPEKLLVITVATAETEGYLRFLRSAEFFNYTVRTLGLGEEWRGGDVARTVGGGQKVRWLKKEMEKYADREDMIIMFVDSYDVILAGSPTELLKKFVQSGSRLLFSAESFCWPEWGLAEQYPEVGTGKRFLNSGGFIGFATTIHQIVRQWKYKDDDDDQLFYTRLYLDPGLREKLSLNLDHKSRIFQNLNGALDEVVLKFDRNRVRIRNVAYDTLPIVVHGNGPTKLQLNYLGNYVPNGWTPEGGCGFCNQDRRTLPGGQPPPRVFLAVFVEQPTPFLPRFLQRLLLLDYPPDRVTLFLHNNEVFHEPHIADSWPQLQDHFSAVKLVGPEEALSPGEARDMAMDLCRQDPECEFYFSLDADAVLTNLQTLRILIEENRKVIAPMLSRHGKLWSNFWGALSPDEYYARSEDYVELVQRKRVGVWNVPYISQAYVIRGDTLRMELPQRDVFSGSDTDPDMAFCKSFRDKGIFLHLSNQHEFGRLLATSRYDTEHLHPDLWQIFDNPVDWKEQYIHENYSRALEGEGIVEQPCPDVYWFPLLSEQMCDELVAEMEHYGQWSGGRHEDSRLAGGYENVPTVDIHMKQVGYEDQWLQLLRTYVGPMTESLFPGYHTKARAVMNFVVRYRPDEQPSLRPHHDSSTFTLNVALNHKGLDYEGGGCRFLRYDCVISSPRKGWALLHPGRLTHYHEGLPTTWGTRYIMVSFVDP
From the text: as §1, §2

For `O=C(O)CNC(=O)C1C(=O)OC2(CCNCC2)OC1=O` [compound A, 2-(2,4-dioxo-1,5-dioxa-9-azaspiro[5.5]undecane-3-carboxamido)acetic acid hydrochloride], the remaining binding at 100 µM (ALKBH3; HL-60 nuclear lysate) was 36%, the remaining binding at 100 µM (ALKBH3; Jurkat nuclear lysate) was 32% and the remaining binding at 100 µM (EGLN1; HL-60 nuclear lysate) was 24%. The remaining binding at 100 µM (EGLN1; Jurkat nuclear lysate) was 13%, the remaining binding at 100 µM (FTO; Jurkat nuclear lysate) was 8% and the remaining binding at 100 µM (FTO; K-562 nuclear lysate) was 19%. For the same molecule, the remaining binding at 100 µM (LEPREL2; Jurkat nuclear lysate) was 9%, the remaining binding at 100 µM (LEPREL2; K-562 nuclear lysate) was 25% and the remaining binding at 100 µM (PLOD1; Jurkat nuclear lysate) was 91%. It also gave a remaining binding at 100 µM (PLOD1; K-562 nuclear lysate) of 35%, a remaining binding at 100 µM (PLOD3; Jurkat nuclear lysate) of 161% and a remaining binding at 100 µM (PLOD3; K-562 nuclear lysate) of 52%.
